{
  "source": "patent US20220267753A1",
  "about": "“RATIONAL THERAPEUTIC TARGETING OF ONCOGENIC IMMUNE SIGNALING STATES IN MYELOID MALIGNANCIES VIA THE UBIQUITIN CONJUGATING ENZYME UBE2N” (CHILDREN'S HOSPITAL MEDICAL CENTER, priority 2019, published 2022)",
  "origin": "cited, not measured here",
  "biological_target": "T1, UBE2N (Homo sapiens, UniProt P61088)",
  "T1 sequence (P61088 1-152)": "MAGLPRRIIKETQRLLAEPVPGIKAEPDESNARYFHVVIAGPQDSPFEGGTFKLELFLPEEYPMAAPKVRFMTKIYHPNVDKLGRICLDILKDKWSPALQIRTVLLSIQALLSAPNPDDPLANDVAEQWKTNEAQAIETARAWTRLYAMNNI",
  "settings": "cited from earlier work; for inhibition of UBE2N by covalent reaction with Cys-87: reference [16]; for selectivity among cysteine-containing ubiquitin enzymes: references [23-25]",
  "data": [
    {"smiles": "Cc1ccc(S(=O)(=O)/C=C/C#N)cc1", "note": "[BAY11-7082]", "values": [
      {"measurement": "inhibition of UBE2N by covalent reaction with Cys-87", "result": "irreversible inhibition of UBE2N"},
      {"measurement": "selectivity among cysteine-containing ubiquitin enzymes", "result": "non-selective inhibitors"}
    ]},
    {"smiles": "Cc1ccc(S(=O)(=O)c2ccc([N+](=O)[O-])o2)cc1", "note": "[NSC697923, 2-(4-methylphenyl)sulfonyl-5-nitrofuran]", "values": [
      {"measurement": "inhibition of UBE2N by covalent reaction with Cys-87", "result": "irreversible inhibition of UBE2N"},
      {"measurement": "selectivity among cysteine-containing ubiquitin enzymes", "result": "non-selective inhibitors"}
    ]}
  ]
}
